pIC50: −log10 of the molar value.
Key:
[1] = system: carrageenan-induced inflammation of paw; test: Carrageenan-induced paw edema, rats; assay type: in vivo, Sprague Dawley male rats; conditions: for Rat Inflammatory: 8 mg/kg x 2, I.P., Table 2;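 for Rat Inflammatory: paw weight increase as percent of control rats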
[2] = system: acetic acid induced stretch reflex; test: Local analgesic screen (acetic acid writhing); assay type: in vivo, CF1 mice; conditions: for Mice Writhing Reflex: 8 mg/kg I.P., Table 2; for reduction of the reflex action: mice, acetic acid induced local pain, 8 mg/kg
[3] = system: tail flick response to heat; test: Hot plate tail flick screen; assay type: in vivo, CF1 male mice; conditions: for Mice Tail Flick: 8 mg/kg I.P., hot plate, Table 2; for tail flick assay time: mice, 8 mg/kg
[4] = system: carrageenan-induced pleural fluid; test: Anti-pleurisy screen; assay type: in vivo, Sprague Dawley male rats; conditions: for pleurisy edema in rats: 8 mg/kg; for Rat Pleurisy: rats, 8 mg/kg I.P., 1 h before and 3 h after carrageenan, Table 2;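 for Rat Pleurisy: Pleural fluid volume as percent of control rats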
[5] = system: adjuvant (M. butyricum) arthritis; test: Chronic adjuvant arthritic screen; assay type: in vivo; conditions: rats; for Rat Chronic Arthritis: 8 mg/kg/day I.P., Day 3 to Day 21, Table 2
[6] = molecular target: acid phosphatase; test: Acid phosphatase activity, mouse macrophages; assay type: cell-based, mouse (J774 macrophages); conditions: Table 3; read-out: IC50 Acid Phosphatase, Mouse Macrophage
[7] = system: cathepsin; test: Cathepsin activity, mouse macrophages; assay type: cell-based, mouse (J774 macrophages); conditions: Table 3; read-out: IC50 Cathepsin, Mouse Macrophage
[8] = molecular target: aryl sulphatase; test: Aryl sulfatase activity, mouse macrophages; assay type: cell-based, mouse (J774 macrophages); conditions: Table 3; read-out: IC50 Aryl Sulfatase, Mouse Macrophage
[9] = system: trypsin; test: Trypsin proteolytic activity, mouse macrophages; assay type: cell-based, mouse (J774 macrophages); conditions: Table 5; read-out: IC50 Trypsin, Mouse Macrophage
[10] = molecular target: elastase; test: Elastase activity, mouse macrophages; assay type: cell-based, mouse (J774 macrophages); conditions: Table 5; read-out: IC50 Elastase, Mouse Macrophage
[11] = system: trypsin; test: Trypsin activity, UMR-106 osteosarcoma cells; assay type: cell-based; conditions: Table 6; read-out: IC50 Trypsin, Rat UMR-106 Bone Osteosarcoma
[12] = system: neutral cathepsin; test: Cathepsin activity, UMR-106 osteosarcoma cells; assay type: cell-based; conditions: Table 6; read-out: IC50 Neutral Cathepsin, Rat UMR-106 Bone Osteosarcoma
[13] = system: elastase; test: Elastase activity, UMR-106 osteosarcoma cells; assay type: cell-based; conditions: Table 6; read-out: IC50 Elastase, Rat UMR-106 Bone Osteosarcoma
[14] = molecular target: prostaglandin cyclooxygenase; test: Prostaglandin cyclooxygenase activity, macrophages; assay type: cell-based, mouse (J774 macrophages); conditions: Table 7
[15] = system: prostaglandin cyclooxygenase; test: Prostaglandin cyclooxygenase activity, Be Sal cells; assay type: cell-based, human (Be Sal osteofibrolytic cells); conditions: Table 7; read-out: IC50 Prostaglandin Cyclooxygenase, Be Sal Osteofibro
[16] = molecular target: T1, prostaglandin cyclooxygenase (Bos taurus, UniProt O62664); test: Prostaglandin synthetase from bovine seminal vesicles; assay type: biochemical; conditions: Table 7; read-out: IC50 Prostaglandin Cyclooxygenase, Beef Seminal Vesicle
T1 construct: purified commercial prostaglandin synthetase from bovine seminal vesicles (Miles Research Products); purchased Miles Research Products; host or cells: bovine seminal vesicles (tissue preparation)
T1 sequence (O62664 25-600): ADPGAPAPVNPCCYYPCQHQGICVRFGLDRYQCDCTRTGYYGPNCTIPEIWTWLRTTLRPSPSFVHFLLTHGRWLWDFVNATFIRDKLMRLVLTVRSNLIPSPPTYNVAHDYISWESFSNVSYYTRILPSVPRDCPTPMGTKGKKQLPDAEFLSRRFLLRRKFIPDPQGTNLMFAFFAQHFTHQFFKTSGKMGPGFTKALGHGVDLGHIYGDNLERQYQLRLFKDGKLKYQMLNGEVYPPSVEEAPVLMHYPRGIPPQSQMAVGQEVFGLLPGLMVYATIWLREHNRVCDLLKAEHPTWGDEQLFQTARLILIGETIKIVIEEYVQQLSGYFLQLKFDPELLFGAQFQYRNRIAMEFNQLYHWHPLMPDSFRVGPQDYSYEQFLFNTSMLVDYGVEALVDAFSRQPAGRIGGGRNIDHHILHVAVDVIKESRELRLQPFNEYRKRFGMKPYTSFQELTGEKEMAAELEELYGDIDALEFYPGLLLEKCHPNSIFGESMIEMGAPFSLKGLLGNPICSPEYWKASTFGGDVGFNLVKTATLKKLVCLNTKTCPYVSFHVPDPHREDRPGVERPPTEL

[17] = molecular target: T2, 5'-lipoxygenase (Mus musculus, UniProt P48999); test: 5'-Lipoxygenase activity, mouse macrophages; assay type: cell-based; conditions: Table 7; read-out: IC50 5'-Lipoxygenase, Mouse Macrophage
T2 construct: endogenous in cells; host or cells: mouse macrophages (J774A as maintained above)
T2 sequence (P48999 1-674): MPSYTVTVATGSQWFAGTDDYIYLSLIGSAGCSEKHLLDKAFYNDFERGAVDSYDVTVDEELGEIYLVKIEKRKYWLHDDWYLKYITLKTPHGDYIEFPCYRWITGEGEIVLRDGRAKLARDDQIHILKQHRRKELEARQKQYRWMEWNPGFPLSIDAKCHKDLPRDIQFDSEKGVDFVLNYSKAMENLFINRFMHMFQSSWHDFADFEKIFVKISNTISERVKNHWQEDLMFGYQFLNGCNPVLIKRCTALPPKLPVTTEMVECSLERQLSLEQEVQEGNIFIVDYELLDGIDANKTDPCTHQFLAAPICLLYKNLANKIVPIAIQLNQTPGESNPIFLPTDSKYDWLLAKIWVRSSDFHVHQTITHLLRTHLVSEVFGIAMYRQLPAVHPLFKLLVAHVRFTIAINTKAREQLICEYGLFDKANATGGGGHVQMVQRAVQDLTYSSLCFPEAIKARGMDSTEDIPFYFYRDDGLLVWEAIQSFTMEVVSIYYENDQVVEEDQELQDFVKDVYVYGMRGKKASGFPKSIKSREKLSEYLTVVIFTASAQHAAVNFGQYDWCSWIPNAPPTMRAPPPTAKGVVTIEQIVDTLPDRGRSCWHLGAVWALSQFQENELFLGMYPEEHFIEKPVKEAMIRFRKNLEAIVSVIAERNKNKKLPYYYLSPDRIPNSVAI

[18] = molecular target: T3, 5'-lipoxygenase (Homo sapiens, UniProt P09917); test: 5'-Lipoxygenase activity, human leukocytes; assay type: cell-based; conditions: Table 7
T3 construct: endogenous in cells; host or cells: RMPI 1788 human leukocytes
T3 sequence (P09917 1-674): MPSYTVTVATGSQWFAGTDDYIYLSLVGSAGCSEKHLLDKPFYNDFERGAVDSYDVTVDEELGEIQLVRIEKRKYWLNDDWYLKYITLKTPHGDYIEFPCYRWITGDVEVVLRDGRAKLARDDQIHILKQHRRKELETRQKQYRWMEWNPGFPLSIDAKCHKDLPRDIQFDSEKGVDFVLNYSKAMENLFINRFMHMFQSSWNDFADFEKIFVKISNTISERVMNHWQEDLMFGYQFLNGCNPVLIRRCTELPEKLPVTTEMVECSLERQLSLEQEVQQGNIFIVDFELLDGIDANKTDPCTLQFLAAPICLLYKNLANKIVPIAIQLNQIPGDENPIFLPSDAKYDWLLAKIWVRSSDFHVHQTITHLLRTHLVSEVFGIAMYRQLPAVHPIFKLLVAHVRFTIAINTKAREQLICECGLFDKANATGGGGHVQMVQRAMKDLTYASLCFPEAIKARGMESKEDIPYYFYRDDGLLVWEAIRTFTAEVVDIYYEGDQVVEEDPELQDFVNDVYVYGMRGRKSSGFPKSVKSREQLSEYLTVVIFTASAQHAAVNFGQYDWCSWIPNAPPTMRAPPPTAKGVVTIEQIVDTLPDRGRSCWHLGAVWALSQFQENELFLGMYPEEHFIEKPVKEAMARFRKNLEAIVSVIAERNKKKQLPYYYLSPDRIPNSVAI

Row | SMILES | Rat Inflammatory [1] | Mice Writhing Reflex [2] | reduction of the reflex action [2] | Mice Tail Flick [3] | pleurisy edema in rats [4] | Rat Pleurisy [4] | Rat Chronic Arthritis [5] | pIC50 [6] | pIC50 [7] | pIC50 [8] | pIC50 [9] | pIC50 [10] | pIC50 [11] | pIC50 [12] | pIC50 [13] | pIC50 [14] | pIC50 [15] | pIC50 [16] | pIC50 [17] | pIC50 [18] | other results
1 | CCCCCCCCCCCCCCCC[N+](C)(C)[BH2-]C(=O)O [Compound 8] | 59 % of control | 16 % of control | 80% | 167 % of control | reduced significantly | 19 % of control | 40 % of control | 6.03 | 5.14 | 5.01 | 5.90 | 5.74 | 5.18 | 5.18 | 5.02 | 5.59 | 5.17 | 5.61 | 5.06 | 5.82 | reduction in induced edema in rats ([1]; 8 mg/kg x 2): at least 40%; tail flick assay time [3]: increased; activity in chronic arthritis screen ([5]; 8 mg/kg/day): significantly active
2 | O=C(O)[BH2-][P+](c1ccccc1)(c1ccccc1)c1ccccc1 [Compound 12] | 61 % of control | 19 % of control | 80% | 197 % of control | reduced significantly | 28 % of control | 49 % of control | 5.97 | 5.26 | 5.07 | 5.75 | 5.52 | 5.25 | 5.24 | 5.05 | 5.45 | 5.26 | 5.12 | 5.01 | 5.32 | tail flick assay time [3]: increased; activity in chronic arthritis screen ([5]; 8 mg/kg/day): significantly active
3 | C[N+](C)(C)[BH2-]C#N [Compound 34] | 65 % of control | 18 % of control | 80% |  | reduced significantly | 65 % of control | 4 % of control | 5.98 | 5.20 | 5.03 | 5.85 | 5.87 | 5.58 | 5.26 | 5.05 | 5.23 | 5.37 | 5.23 | 5.09 | 5.19 | reduction of pannus ([5]; 8 mg/kg/day): greater than 75%

Reference: PMC2364952, “The Anti-Inflammatory Activity of Boron Derivatives in Rodents” (Metal-Based Drugs, 1995)
